Numbers after ± are expanded uncertainties.
Test: mn = molality of the nth substance listed, in mol/kg
Conditions: Liquid, Vibrating tube method

[Ca+2].[Cl-].[Cl-] [calcium chloride] + CO
Conditions | mass density [kg/m3]
348.24 K, 14994 kPa, m1 = 0.1082 | 766.79 ± 0.53
348.24 K, 14997 kPa, m1 = 0.6588 | 815.48 ± 0.54
348.24 K, 15007 kPa, m1 = 0.2853 | 782.23 ± 0.53
348.24 K, 19987 kPa, m1 = 0.6588 | 820.39 ± 0.55
348.24 K, 19991 kPa, m1 = 0.2853 | 787.34 ± 0.55
348.24 K, 20008 kPa, m1 = 0.1082 | 772.12 ± 0.55
348.24 K, 24982 kPa, m1 = 0.1082 | 777.11 ± 0.57
348.24 K, 24994 kPa, m1 = 0.6588 | 825.04 ± 0.56
348.24 K, 24997 kPa, m1 = 0.2853 | 792.2 ± 0.57
348.24 K, 29990 kPa, m1 = 0.1082 | 781.87 ± 0.59
348.24 K, 29991 kPa, m1 = 0.2853 | 796.8 ± 0.58
348.24 K, 29992 kPa, m1 = 0.6588 | 829.46 ± 0.58
348.24 K, 34986 kPa, m1 = 0.2853 | 801.19 ± 0.6
348.24 K, 34998 kPa, m1 = 0.6588 | 833.71 ± 0.59
348.24 K, 35025 kPa, m1 = 0.1082 | 786.39 ± 0.61
348.24 K, 39992 kPa, m1 = 0.1082 | 790.73 ± 0.63
348.24 K, 40048 kPa, m1 = 0.6588 | 837.76 ± 0.61
348.24 K, 40055 kPa, m1 = 0.2853 | 805.38 ± 0.63
373.24 K, 517 kPa, m1 = 2.393 | 904.38 ± 0.55
373.24 K, 4985 kPa, m1 = 2.393 | 909.14 ± 0.56
373.24 K, 10000 kPa, m1 = 2.393 | 914.19 ± 0.56
373.24 K, 14988 kPa, m1 = 2.393 | 918.95 ± 0.57
373.24 K, 20003 kPa, m1 = 2.393 | 923.48 ± 0.57
373.24 K, 25015 kPa, m1 = 2.393 | 927.81 ± 0.58
373.24 K, 29988 kPa, m1 = 2.393 | 931.93 ± 0.58
373.24 K, 35016 kPa, m1 = 2.393 | 935.94 ± 0.59
373.24 K, 40000 kPa, m1 = 2.393 | 939.74 ± 0.59
373.26 K, 523 kPa, m1 = 0.2853 | 738.51 ± 0.47
373.26 K, 527 kPa, m1 = 0.1082 | 722.32 ± 0.47
373.26 K, 534 kPa, m1 = 0.6588 | 773.01 ± 0.49
373.26 K, 4997 kPa, m1 = 0.2853 | 745.17 ± 0.49
373.26 K, 4999 kPa, m1 = 0.1082 | 729.31 ± 0.48
373.26 K, 5013 kPa, m1 = 0.6588 | 779.26 ± 0.5
373.26 K, 9996 kPa, m1 = 0.2853 | 752.01 ± 0.51
373.26 K, 10000 kPa, m1 = 0.6588 | 785.66 ± 0.52
373.26 K, 10001 kPa, m1 = 0.1082 | 736.45 ± 0.5
373.26 K, 14984 kPa, m1 = 0.2853 | 758.3 ± 0.53
373.26 K, 14986 kPa, m1 = 0.6588 | 791.62 ± 0.53
373.26 K, 15009 kPa, m1 = 0.1082 | 743.03 ± 0.53
373.26 K, 19980 kPa, m1 = 0.2853 | 764.17 ± 0.55
373.26 K, 19981 kPa, m1 = 0.1082 | 749.09 ± 0.55
373.26 K, 20010 kPa, m1 = 0.6588 | 797.23 ± 0.55
373.26 K, 24999 kPa, m1 = 0.2853 | 769.7 ± 0.57
373.26 K, 25000 kPa, m1 = 0.6588 | 802.48 ± 0.57
373.26 K, 25016 kPa, m1 = 0.1082 | 754.83 ± 0.57
373.26 K, 29995 kPa, m1 = 0.1082 | 760.17 ± 0.6
373.26 K, 29996 kPa, m1 = 0.6588 | 807.45 ± 0.58
373.26 K, 30000 kPa, m1 = 0.2853 | 774.89 ± 0.59
373.26 K, 34993 kPa, m1 = 0.2853 | 779.79 ± 0.62
373.26 K, 35000 kPa, m1 = 0.6588 | 812.19 ± 0.6
373.26 K, 35003 kPa, m1 = 0.1082 | 765.25 ± 0.62
373.26 K, 40001 kPa, m1 = 0.6588 | 816.69 ± 0.62
373.26 K, 40004 kPa, m1 = 0.2853 | 784.46 ± 0.64
373.26 K, 40011 kPa, m1 = 0.1082 | 770.07 ± 0.65
398.25 K, 888 kPa, m1 = 2.393 | 878.49 ± 0.54
398.25 K, 5007 kPa, m1 = 2.393 | 883.68 ± 0.55
398.25 K, 10016 kPa, m1 = 2.393 | 889.54 ± 0.55
398.25 K, 14986 kPa, m1 = 2.393 | 895.06 ± 0.56
398.25 K, 19983 kPa, m1 = 2.393 | 900.25 ± 0.57
398.25 K, 24997 kPa, m1 = 2.393 | 905.15 ± 0.57
398.25 K, 29989 kPa, m1 = 2.393 | 909.82 ± 0.58
398.25 K, 34996 kPa, m1 = 2.393 | 914.29 ± 0.59
398.25 K, 40014 kPa, m1 = 2.393 | 918.56 ± 0.59
398.27 K, 880 kPa, m1 = 0.6588 | 744.38 ± 0.48
398.27 K, 899 kPa, m1 = 0.2853 | 709.27 ± 0.46
398.27 K, 901 kPa, m1 = 0.1082 | 692.84 ± 0.45
398.27 K, 4987 kPa, m1 = 0.6588 | 751.36 ± 0.49
398.27 K, 4995 kPa, m1 = 0.2853 | 716.79 ± 0.48
398.27 K, 4999 kPa, m1 = 0.1082 | 700.78 ± 0.47
398.27 K, 9984 kPa, m1 = 0.2853 | 725.04 ± 0.5
398.27 K, 9997 kPa, m1 = 0.6588 | 759.11 ± 0.51
398.27 K, 10005 kPa, m1 = 0.1082 | 709.46 ± 0.5
398.27 K, 14988 kPa, m1 = 0.2853 | 732.54 ± 0.53
398.27 K, 15011 kPa, m1 = 0.1082 | 717.28 ± 0.52
398.27 K, 15012 kPa, m1 = 0.6588 | 766.18 ± 0.53
398.27 K, 19999 kPa, m1 = 0.2853 | 739.43 ± 0.55
398.27 K, 20003 kPa, m1 = 0.1082 | 724.41 ± 0.55
398.27 K, 20013 kPa, m1 = 0.6588 | 772.68 ± 0.55
398.27 K, 24989 kPa, m1 = 0.2853 | 745.78 ± 0.58
398.27 K, 25000 kPa, m1 = 0.6588 | 778.71 ± 0.57
398.27 K, 25003 kPa, m1 = 0.1082 | 730.99 ± 0.58
398.27 K, 29985 kPa, m1 = 0.6588 | 784.37 ± 0.59
398.27 K, 30002 kPa, m1 = 0.2853 | 751.73 ± 0.6
398.27 K, 30013 kPa, m1 = 0.1082 | 737.16 ± 0.61
398.27 K, 34982 kPa, m1 = 0.1082 | 742.86 ± 0.64
398.27 K, 34983 kPa, m1 = 0.2853 | 757.27 ± 0.63
398.27 K, 35012 kPa, m1 = 0.6588 | 789.76 ± 0.61
398.27 K, 39992 kPa, m1 = 0.2853 | 762.54 ± 0.66
398.27 K, 39995 kPa, m1 = 0.1082 | 748.29 ± 0.67
398.27 K, 39999 kPa, m1 = 0.6588 | 794.79 ± 0.64

From the NIST ThermoML archive (doi:10.1016/j.jct.2005.05.003)
